According to US20140329682A1, “METHOD OF CONTROLLING WEED IN A SUGAR CANE FIELD” (SUMITOMO CHEMICAL COMPANY, LIMITED, priority 2011, published 2014):

Legend:
[1] = test system: Amaranthus retroflexus; experiment: Herbicidal activity, soil surface spray, insecticide-treated stem cutting (Example 6); type: in vivo; conditions: 3 cm stem cutting treated with clothianidin, thiamethoxiam, imidacloprid, dinotefuran, nitenpyram, acetamiprid or thiacloprid, four weeks after treatment
Procedure: A 30 cm to 40 cm stem cutting of sugar cane is placed on a wet soil, and germination is stimulated. The stem cutting from which a bud has grown to about 1 cm is selected, and the length of the stem cutting is adjusted to be 3 cm so that the stem cutting has one node. Clothianidin, thiamethoxiam, imidacloprid, dinotefuran, nitenpyram, acetamiprid or thiacloprid is adhered to the stem cutting. A soil is packed into a plastic pot, and seeds of Amaranthus retroflexus are seeded thereon. The stem cutting of sugar cane treated with clothianidin, thiamethoxiam, imidacloprid, dinotefuran, nitenpyram, acetamiprid or thiacloprid is planted in the soil packed into the pot at a depth of 2 cm. […] Thereafter, the pot for a test is placed in a greenhouse.

[2] = test system: sugar cane; experiment: Phytotoxicity on sugar cane, spray above weed before planting, insecticide-treated stem cutting (Example 7)
Procedure: (§1) The “phytotoxicity” evaluated herein is the damage characteristic determined to be due to a treated compound, and is clearly discriminated from the damage characteristic caused by a harmful animal or plant disease.
(§2) A soil is packed into a plastic pot, and seeds of Amaranthus retroflexus are seeded thereon. Thereafter, the pot is placed in a greenhouse, and the weed is grown.
A 30 cm to 40 cm stem cutting of sugar cane is placed on a wet soil, and germination is stimulated. The stem cutting from which a bud has grown to about 1 cm is selected, and the length of the stem cutting is adjusted to be 3 cm so that the stem cutting has one node. Clothianidin, thiamethoxiam, imidacloprid, dinotefuran, nitenpyram, acetamiprid or thiacloprid is adhered to the stem cutting.
(§3) The pot for a test is placed in a greenhouse.

[3] = test system: Amaranthus retroflexus; experiment: Herbicidal activity, soil surface spray, azole-fungicide-treated stem cutting (Example 10); type: in vivo; conditions: 3 cm stem cutting treated with azaconazole, bitertanol or another listed azole-type fungicide, four weeks after treatment
Description: A 30 to 40 cm stem cutting of sugar cane is placed on a wet soil, and germination is stimulated. The stem cutting from which a bud has grown to about 1 cm is selected, and the length of the stem cutting is adjusted to be 3 cm so that the stem cutting has one node. Azaconazole, bitertanol, bromoconazole, cyproconazole, difenoconazole, diniconazole, epoxyconazole, fenbuconazole, fluquinconazole, flusilazole, flutriafol, hexaconazole, imibenconazole, ipconazole, metconazole, myclobutanil, penconazole, propiconazole, prothioconazole, simeconazole, tebuconazole, tetraconazole, triadimenol, triticonazole, fenarimol, nuarimol, pyrifenox, imazalil, oxpoconazole fumarate, pefurazoate, procloraz or triflumizole is adhered to the stem cutting. A soil is packed into a plastic pot, and seeds of Amaranthus retroflexus are seeded thereon. The stem cutting of sugar cane treated with azaconazole, bitertanol, bromoconazole, cyproconazole, difenoconazole, diniconazole, epoxyconazole, fenbuconazole, fluquinconazole, flusilazole, flutriafol, hexaconazole, imibenconazole, ipconazole, metconazole, myclobutanil, penconazole, propiconazole, prothioconazole, simeconazole, tebuconazole, tetraconazole, triadimenol, triticonazole, fenarimol, nuarimol, pyrifenox, imazalil, oxpoconazole fumarate, pefurazoate, procloraz or triflumizole is planted in the soil packed into the pot at a depth of 2 cm. […] Thereafter, the pot for a test is placed in a greenhouse.

[4] = test system: sugar cane; experiment: Phytotoxicity on sugar cane, spray above weed one week before planting (Example 5)
Procedure: as §1, §2
(§4) A 30 cm to 40 cm stem cutting of sugar cane is placed on a wet soil, and germination is stimulated. The stem cutting from which a bud has been grown to about 1 cm is selected, and the length of the stem cutting is adjusted to be 3 cm so that the stem cutting has one node.
as §3

[5] = test system: sugar cane; experiment: Phytotoxicity on sugar cane, spray above weed before planting, azole-fungicide-treated stem cutting (Example 11)
Procedure: as §1
A soil is packed into a plastic pat, and seeds of Amaranthus retroflexus are seeded thereon. Thereafter, the pot is placed in a greenhouse, and the weed is grown.
(§5) A 30 cm to 40 cm stem cutting of sugar cane is placed on a wet soil, and germination is stimulated. The stem cutting from which a bud has grown to about 1 cm is selected, and the length of the stem cutting is adjusted to be 3 cm so that the stem cutting has one node. Azaconazole, bitertanol, bromoconazole, cyproconazole, difenoconazole, diniconazole, epoxyconazole, fenbuconazole, fluquinconazole, flusilazole, flutriafol, hexaconazole, imibenconazole, ipconazole, metconazole, myclobutanil, penconazole, propiconazole, prothioconazole, simeconazole, tebuconazole, tetraconazole, triadimenol, triticonazole, fenarimol, nuarimol, pyrifenox, imazalil, oxpoconazole fumarate, pefurazoate, procloraz or triflumizole is adhered to the stem cutting.
as §3

[6] = test system: Amaranthus retroflexus; experiment: Herbicidal activity, soil surface spray, metalaxyl-treated stem cutting (Example 12); type: in vivo; conditions: 3 cm stem cutting treated with metalaxyl or metalaxyl-M, four weeks after treatment
Procedure: A soil is packed into a plastic pot. Seeds of Amaranthus retroflexus are seeded thereon.

[7] = test system: sugar cane; experiment: Phytotoxicity on sugar cane, spray above weed before planting, metalaxyl-treated stem cutting (Example 13)
Procedure: as §1
A soil is packed into a plastic pot, and seeds of Amaranthus retroflexus are seeded thereon. Thereafter, a pot is placed in a greenhouse, and the weed is grown.
as §4, with “has” for “has been”, “node. Metalaxyl or metalaxyl-M is adhered to the stem cutting.” for “node.”
as §3

[8] = test system: sugar cane; experiment: Phytotoxicity on sugar cane, spray above weed before planting, strobilurin-treated stem cutting (Example 9)
Procedure: as §1, §2
as §4, with “has” for “has been”, “node. Kresoxim-methyl, azoxystrobin, trifloxystrobin, fluoxastrobin, picoxystrobin, pyraclostrobin, dimoxystrobin, pyribencarb, metominostrobin, orysastrobin, enestrobin, pyraoxystrobin or pyrametostrobin is adhered to the stem cutting.” for “node.”
as §3

[9] = test system: Amaranthus retroflexus; experiment: Herbicidal activity, soil surface spray, strobilurin-treated stem cutting (Example 8); type: in vivo; conditions: 3 cm stem cutting treated with kresoxim-methyl, azoxystrobin or another listed strobilurin fungicide, four weeks after treatment
Description: A 30 cm to 40 cm stem cutting of sugar cane is placed on a wet soil, and germination is stimulated. The stem cutting from which a bud has grown to about 1 cm is selected, and the length of the stem cutting is adjusted to be 3 cm so that the stem cutting has one node. Kresoxim-methyl, azoxystrobin, trifloxystrobin, fluoxastrobin, picoxystrobin, pyraclostrobin, dimoxystrobin, pyribencarb, metominostrobin, orysastrobin, enestrobin, pyraoxystrobin or pyrametostrobin is adhered to the stem cutting. A soil is packed into a plastic pot, and seeds of Amaranthus retroflexus are seeded thereon. The stem cutting of sugar cane treated with kresoxim-methyl, azoxystrobin, trifloxystrobin, fluoxastrobin, picoxystrobin, pyraclostrobin, dimoxystrobin, pyribencarb, metominostrobin, orysastrobin, enestrobin, pyraoxystrobin or pyrametostrobin is planted in the soil packed into the pot at a depth of 2 cm. […] Thereafter, the pot for a test is placed in a greenhouse.

[10] = test system: Amaranthus retroflexus; experiment: Herbicidal activity, spray above weed one week before planting (Example 5); type: in vivo; conditions: sprayed above weed three weeks after seeding, 3 cm stem cutting planted one week after treatment, four weeks after treatment
[11] = test system: sugar cane; experiment: Phytotoxicity on sugar cane, soil surface spray, azole-fungicide-treated stem cutting (Example 10)
Description: as §1
as §5, with “30” for “30 cm”, “cutting. A soil is packed into a plastic pot, and seeds of Amaranthus retroflexus are seeded thereon. The stem cutting of sugar cane treated with azaconazole, bitertanol, bromoconazole, cyproconazole, difenoconazole, diniconazole, epoxyconazole, fenbuconazole, fluquinconazole, flusilazole, flutriafol, hexaconazole, imibenconazole, ipconazole, metconazole, myclobutanil, penconazole, propiconazole, prothioconazole, simeconazole, tebuconazole, tetraconazole, triadimenol, triticonazole, fenarimol, nuarimol, pyrifenox, imazalil, oxpoconazole fumarate, pefurazoate, procloraz or triflumizole is planted in the soil packed into the pot at a depth of 2 cm. […] Thereafter, the pot for a test is placed in a greenhouse.” for “cutting.”

[12] = test system: Amaranthus retroflexus; experiment: Herbicidal activity, spray above weed before planting, azole-fungicide-treated stem cutting (Example 11); type: in vivo; conditions: sprayed above weed, 3 cm stem cutting treated with azaconazole, bitertanol or another listed azole-type fungicide planted one week after treatment, four weeks after treatment
[13] = test system: Amaranthus retroflexus; experiment: Herbicidal activity, spray above weed before planting, metalaxyl-treated stem cutting (Example 13); type: in vivo; conditions: sprayed above weed, 3 cm stem cutting treated with metalaxyl or metalaxyl-M planted one week after treatment, four weeks after treatment
Description: A 30 cm to 40 cm stem cutting of sugar cane is placed on a wet soil, and germination is stimulated. The stem cutting from which a bud has grown to about 1 cm is selected, and the length of the stem cutting is adjusted to be 3 cm so that the stem cutting has one node. Metalaxyl or metalaxyl-M is adhered to the stem cutting.

[14] = test system: Amaranthus retroflexus; experiment: Herbicidal activity, spray above weed before planting, strobilurin-treated stem cutting (Example 9); type: in vivo; conditions: sprayed above weed, 3 cm stem cutting treated with kresoxim-methyl, azoxystrobin or another listed strobilurin fungicide planted one week after treatment, four weeks after treatment
Description: A 30 cm to 40 cm stem cutting of sugar cane is placed on a wet soil, and germination is stimulated. The stem cutting from which a bud has grown to about 1 cm is selected, and the length of the stem cutting is adjusted to be 3 cm so that the stem cutting has one node. Kresoxim-methyl, azoxystrobin, trifloxystrobin, fluoxastrobin, picoxystrobin, pyraclostrobin, dimoxystrobin, pyribencarb, metominostrobin, orysastrobin, enestrobin, pyraoxystrobin or pyrametostrobin is adhered to the stem cutting.

[15] = Example 7, sprayed above weed, 3 cm stem cutting treated with clothianidin, thiamethoxiam, imidacloprid, dinotefuran, nitenpyram, acetamiprid or thiacloprid planted one week after treatment, four weeks after treatment
[16] = Example 5, sprayed above weed three weeks after seeding, 3 cm stem cutting planted one week after treatment, four weeks after treatment
[17] = Example 11, sprayed above weed, 3 cm stem cutting treated with azaconazole, bitertanol or another listed azole-type fungicide planted one week after treatment, four weeks after treatment
[18] = Example 13, sprayed above weed, 3 cm stem cutting treated with metalaxyl or metalaxyl-M planted one week after treatment, four weeks after treatment
[19] = Example 9, sprayed above weed, 3 cm stem cutting treated with kresoxim-methyl, azoxystrobin or another listed strobilurin fungicide planted one week after treatment, four weeks after treatment
[20] = Example 10, 3 cm stem cutting treated with azaconazole, bitertanol or another listed azole-type fungicide, soil surface spray, four weeks after treatment

Structure (SMILES)	herbicidal activity against Amaranthus retroflexus [1]	phytotoxicity [2, 15]	herbicidal activity against Amaranthus retroflexus [3]	phytotoxicity [4, 16]	phytotoxicity [5, 17]	herbicidal activity against Amaranthus retroflexus [6]	phytotoxicity [7, 18]	phytotoxicity [8, 19]	herbicidal activity against Amaranthus retroflexus [9]	herbicidal activity against Amaranthus retroflexus [10]	phytotoxicity [11, 20]	herbicidal activity against Amaranthus retroflexus [12]	herbicidal activity against Amaranthus retroflexus [13]	herbicidal activity against Amaranthus retroflexus [14]	phytotoxicity ([2]; in vivo)	phytotoxicity ([4]; in vivo)	phytotoxicity ([5]; in vivo)	phytotoxicity ([7]; in vivo)	phytotoxicity ([11]; in vivo)	phytotoxicity ([8]; in vivo)
C#CCN1C(=O)COc2cc(F)c(N3C(=O)C4=C(CCCC4)C3=O)cc21 [Flumioxazin, flumioxazin]	the controlling effect on a weed can be confirmed	significant phytotoxicity on sugar cane is not observed	the control effect on a weed can be confirmed	significant phytotoxicity on sugar cane is not found	significant phytotoxicity on sugar cane is not observed	the controlling effect on a weed can be confirmed	significant phytotoxicity on sugar cane is not observed	significant phytotoxicity on sugar cane is not observed	the controlling effect on a weed can be confirmed	the controlling effect on a weed can be confirmed	significant phytotoxicity on sugar cane is not observed	the controlling effect on a weed can be confirmed	the controlling effect on a weed can be confirmed	the controlling effect on a weed can be confirmed						
CC(C)N(C)S(=O)(=O)NC(=O)c1cc(-n2c(=O)cc(C(F)(F)F)n(C)c2=O)c(F)cc1Cl [Saflufenacil, saflufenacil]	the controlling effect on a weed can be confirmed	significant phytotoxicity on sugar cane is not observed	the control effect on a weed can be confirmed	significant phytotoxicity on sugar cane is not found	significant phytotoxicity on sugar cane is not observed	the controlling effect on a weed can be confirmed	significant phytotoxicity on sugar cane is not observed	significant phytotoxicity on sugar cane is not observed	the controlling effect on a weed can be confirmed	the controlling effect on a weed can be confirmed	significant phytotoxicity on sugar cane is not observed	the controlling effect on a weed can be confirmed	the controlling effect on a weed can be confirmed	the controlling effect on a weed can be confirmed						
C#CCN1C(=O)COc2cc(F)c(-n3c(=O)n(C)c(=S)n(C)c3=O)cc21 [compound of the formula (I)]	the controlling effect on a weed can be confirmed		the control effect on a weed can be confirmed			the controlling effect on a weed can be confirmed		significant phytotoxicity on sugar cane is not observed	the controlling effect on a weed can be confirmed	the controlling effect on a weed can be confirmed		the controlling effect on a weed can be confirmed	the controlling effect on a weed can be confirmed	the controlling effect on a weed can be confirmed	significant phytotoxicity on sugar cane is not observed	significant phytotoxicity on sugar cane is not found	significant phytotoxicity on sugar cane is not observed	significant phytotoxicity on sugar cane is not observed	significant phytotoxicity on sugar cane is not observed	
CC(C)Oc1cc(-n2nc(C(C)(C)C)oc2=O)c(Cl)cc1Cl [oxadiazon]	the controlling effect on a weed can be confirmed		the control effect on a weed can be confirmed			the controlling effect on a weed can be confirmed			the controlling effect on a weed can be confirmed	the controlling effect on a weed can be confirmed		the controlling effect on a weed can be confirmed	the controlling effect on a weed can be confirmed	the controlling effect on a weed can be confirmed	significant phytotoxicity on sugar cane is not observed	significant phytotoxicity on sugar cane is not found	significant phytotoxicity on sugar cane is not observed	significant phytotoxicity on sugar cane is not observed	significant phytotoxicity on sugar cane is not observed	significant phytotoxicity on sugar cane is not observed
